# Laboratory results from US20260217660A1, “INHIBITORS OF ACTIVIN RECEPTOR TYPE I (ACVRI) AND ACTIVIN RECEPTOR LIKE TYPE I (ACVRLI), AND METHODS USING SAME” (Baylor College of Medicine, priority 2023, published 2026).
# Where a chain is given by its changes, count along the chain named.
# Legend:
# [1] = target: T1, ACVR1^R206H (Homo sapiens, UniProt Q04771, R206H); test: Promega NanoBRET live-cell target engagement, ACVR1 (R206H); type: cell-based; settings: in cellulo; NI = No inhibition at 40 μM
# T1 sequence (Q04771 21-509 R206H): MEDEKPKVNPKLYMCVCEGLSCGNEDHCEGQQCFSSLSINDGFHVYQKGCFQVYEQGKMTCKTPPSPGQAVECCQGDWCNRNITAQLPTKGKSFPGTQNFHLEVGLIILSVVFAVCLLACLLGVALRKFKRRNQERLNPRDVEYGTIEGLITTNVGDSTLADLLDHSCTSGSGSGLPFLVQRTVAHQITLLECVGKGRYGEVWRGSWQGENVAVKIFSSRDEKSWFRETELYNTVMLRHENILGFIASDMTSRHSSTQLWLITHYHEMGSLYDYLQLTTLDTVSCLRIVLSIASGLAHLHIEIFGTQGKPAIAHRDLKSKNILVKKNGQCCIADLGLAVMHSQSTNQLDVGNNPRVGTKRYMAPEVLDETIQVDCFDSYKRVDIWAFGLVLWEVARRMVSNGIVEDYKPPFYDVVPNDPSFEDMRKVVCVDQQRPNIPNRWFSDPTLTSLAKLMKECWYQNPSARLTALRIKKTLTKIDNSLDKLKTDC
# Excerpt: (§1) The Promega NanoBRET target engagement system involves cell-based competitive displacement of a fluorescent NanoBRET tracer bound reversibly to a NanoLuc fusion protein. Test compounds displace the tracer dependent on their affinity for the target and reduce […] the NanoBRET signal. […]
# [2] = Metabolic stability in human liver microsomes; type: in vitro ADME; settings: some cells add hours in brackets
# Excerpt: (§2) Exemplary compounds of the present disclosure have been evaluated for metabolic stability in mouse and human liver microsomes.
# [3] = Metabolic stability in mouse liver microsomes; type: in vitro ADME; settings: some cells add hours in brackets
# Excerpt: as §2
# [4] = target: T2, ACVR1^WT (Homo sapiens, UniProt Q04771); test: Promega NanoBRET live-cell target engagement, ACVR1; type: cell-based; settings: in cellulo; NI = No inhibition at 40 μM
# T2 sequence (Q04771 21-509): T1 sequence (Q04771 21-509 R206H) with H186R
# Excerpt: as §1
# [5] = target: T3, ACVR1 (Homo sapiens, UniProt Q04771); test: ThermoFisher (Lantha) kinase assay, inhibition of ACVR1; type: biochemical; settings: ThermoFisher Assay, in vitro
# T3 construct: purchased ThermoFisher
# T3 sequence (Q04771 21-509): T1 sequence (Q04771 21-509 R206H) with H186R
# [6] = target: T4, ACVRL1 (Homo sapiens, UniProt P37023); test: ThermoFisher (Lantha) kinase assay, inhibition of ACVRL1; type: biochemical; settings: in vitro, NA = not active at 1 μM
# T4 construct: purchased ThermoFisher
# T4 sequence (P37023 22-503): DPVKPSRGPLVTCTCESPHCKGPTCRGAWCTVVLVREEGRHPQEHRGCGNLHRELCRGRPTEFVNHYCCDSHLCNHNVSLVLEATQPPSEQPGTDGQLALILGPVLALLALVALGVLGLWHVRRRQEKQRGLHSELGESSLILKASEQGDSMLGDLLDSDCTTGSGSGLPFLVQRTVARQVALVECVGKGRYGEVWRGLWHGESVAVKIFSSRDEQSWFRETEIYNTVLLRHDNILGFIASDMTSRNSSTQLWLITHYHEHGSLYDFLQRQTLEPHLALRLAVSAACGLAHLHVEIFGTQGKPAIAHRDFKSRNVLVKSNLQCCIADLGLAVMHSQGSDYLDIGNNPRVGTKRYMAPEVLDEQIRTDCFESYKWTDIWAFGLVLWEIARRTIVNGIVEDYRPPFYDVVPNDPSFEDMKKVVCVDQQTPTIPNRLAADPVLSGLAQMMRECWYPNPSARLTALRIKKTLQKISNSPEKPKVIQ
Compound,IC50 [5],IC50 [6],further results
"COc1cc(-c2nc3ccc(C(=O)NCCCN4CCN(c5ccccc5)C(=O)C4)cc3n2C2CCC2)cc(OC)c1OC [CDD-2790, 1-cyclobutyl-N-(3-(3-oxo-4-phenylpiperazin-1-yl)propyl)-2-(3,4,5-trimethoxyphenyl)-1H-benzo[d]imidazole-6-carboxamide]",–,–,IC50 [1]: 2270 nM; Metabolism HLM [2]: 9.0 min; Metabolism MLM [3]: 6.1 min; IC50 [4]: 1820 nM
"COc1cc(-c2nc3ccc(C(=O)NCC4(O)CCN(Cc5ccccc5)CC4)cc3n2C2CCC2)cc(OC)c1OC [CDD-2795, N-((1-benzyl-4-hydroxypiperidin-4-yl)methyl)-1-cyclobutyl-2-(3,4,5-trimethoxyphenyl)-1H-benzo[d]imidazole-6-carboxamide]",–,–,IC50 [1]: 459 nM; IC50 [4]: 387 nM
"CNC(=O)[C@H]1CC[C@H](n2c(-c3cc(OC)c(OC)c(OC)c3)nc3ccc(C(=O)NCCCN4CCN(c5ccccc5)CC4)cc32)C1 [CDD-2206, 1-((1S,3S)-3-(methylcarbamoyl)cyclopentyl)-N-(3-(4-phenylpiperazin-1-yl)propyl)-2-(3,4,5-trimethoxyphenyl)-1H-benzo[d]imidazole-6-carboxamide]",5.3 nM,26.9 nM,–
"COc1cc(-c2nc3ccc(C(=O)NCCCN4CCN(c5ccccc5)CC4)cc3[nH]2)cc(OC)c1OC [CDD-2236, N-(3-(4-phenylpiperazin-1-yl)propyl)-2-(3,4,5-trimethoxyphenyl)-1H-benzo[d]imidazole-6-carboxamide]",65.6 nM,534 nM,–
"CNC(=O)[C@H]1CC[C@H](n2c(-c3cc(OC)c(OC)c(OC)c3)nc3ccc(C(=O)NC4COc5ccc(Cl)cc54)cc32)C1 (stereo partly drawn) [CDD-2233, N-(5-chloro-2,3-dihydrobenzofuran-3-yl)-1-((1S,3S)-3-(methylcarbamoyl)cyclopentyl)-2-(3,4,5-trimethoxyphenyl)-1H-benzo[d]imidazole-6-carboxamide]",19.9 nM,20.1 nM,–
"CNC(=O)[C@H]1C[C@H](n2c(-c3cc(F)cc(OC)c3)nc3ccc(C(=O)NCCCN(C)C)cc32)C1 [CDD-2682, N-(3-(dimethylamino)propyl)-2-(3-fluoro-5-methoxyphenyl)-1-((1r,3r)-3-(methylcarbamoyl)cyclobutyl)-1H-benzo[d]imidazole-6-carboxamide]",87.1 nM,407 nM,–
"COc1cc(-c2nc3ccc(C(=O)NCCC(=O)N4CCN(c5cccc(C)c5C)CC4)cc3n2C2CCC2)cc(OC)c1OC [CDD-2467, 1-cyclobutyl-N-(3-(4-(2,3-dimethylphenyl)piperazin-1-yl)-3-oxopropyl)-2-(3,4,5-trimethoxyphenyl)-1H-benzo[d]imidazole-6-carboxamide]",–,–,Metabolism HLM [2]: 13.6 min; Metabolism MLM [3]: 9.3 min
"COc1cc(-c2nc3ccc(C(=O)NCCN4CCN(C5CCCCC5)CC4)cc3n2C2CCC2)cc(OC)c1OC [CDD-2794, 1-cyclobutyl-N-(2-(4-cyclohexylpiperazin-1-yl)ethyl)-2-(3,4,5-trimethoxyphenyl)-1H-benzo[d]imidazole-6-carboxamide]",–,–,IC50 [1]: 3160 nM; IC50 [4]: 2090 nM
"CNC(=O)[C@H]1C[C@H](n2c(-c3cc(OC)c(OC)c(OC)c3)nc3ccc(C(=O)NCCCN4CCN(c5cccc(C)c5C)CC4)cc32)C1 [CDD-2341, N-(3-(4-(2,3-dimethylphenyl)piperazin-1-yl)propyl)-1-((1r,3r)-3-(methylcarbamoyl)cyclobutyl)-2-(3,4,5-trimethoxyphenyl)-1H-benzo[d]imidazole-6-carboxamide]",3.6 nM,12.3 nM,–
"CNC(=O)[C@H]1CC[C@H](n2c(-c3cc(I)c(OC)c(OC)c3)nc3ccc(C(=O)NCCCN4CCN(c5ccccc5)CC4)cc32)C1 [CDD-2205, 2-(3-iodo-4,5-dimethoxyphenyl)-1-((1S,3S)-3-(methylcarbamoyl)cyclopentyl)-N-(3-(4-phenylpiperazin-1-yl)propyl)-1H-benzo[d]imidazole-6-carboxamide]",3.7 nM,14.8 nM,–
"CNC(=O)[C@H]1C[C@H](n2c(-c3ccc(OC)c(OC)c3)nc3ccc(C(=O)NCCCN(C)C)cc32)C1 [CDD-2685, 2-(3,4-dimethoxyphenyl)-N-(3-(dimethylamino)propyl)-1-((1r,3r)-3-(methylcarbamoyl)cyclobutyl)-1H-benzo[d]imidazole-6-carboxamide]",121 nM,390 nM,–
"COc1cc(-c2nc3ccc(C(=O)NCCCN4CCN(C)C(c5ccccc5)C4)cc3n2C2CCC2)cc(OC)c1OC (centres unmarked) [CDD-2793, 1-cyclobutyl-N-(3-(4-methyl-3-phenylpiperazin-1-yl)propyl)-2-(3,4,5-trimethoxyphenyl)-1H-benzo[d]imidazole-6-carboxamide]",–,–,IC50 [1]: 4280 nM; IC50 [4]: 2720 nM
"COc1cc(OC)cc(-c2nc3ccc(C(=O)NCCCN4CCN(c5cccc(C)c5C)CC4)cc3n2C2CCC2)c1 [CDD-2469, 1-cyclobutyl-2-(3,5-dimethoxyphenyl)-N-(3-(4-(2,3-dimethylphenyl)piperazin-1-yl)propyl)-1H-benzo[d]imidazole-6-carboxamide]",–,–,IC50 [1]: 4450 nM; IC50 [4]: 4720 nM
"CNC(=O)[C@@H]1CC[C@@H](n2c(-c3cc(OC)c(OC)c(OC)c3)nc3ccc(C(=O)NCCCN4CCN(c5ccccc5)CC4)cc32)C1 [CDD-2622, 1-((1R,3R)-3-(methylcarbamoyl)cyclopentyl)-N-(3-(4-phenylpiperazin-1-yl)propyl)-2-(3,4,5-trimethoxyphenyl)-1H-benzo[d]imidazole-6-carboxamide]",5.7 nM,11.5 nM,–
"CNC(=O)[C@H]1C[C@H](n2c(-c3cc(OC)c(OC)c(OC)c3)nc3ccc(C(=O)NCCCN4CCN(c5ccccc5)CC4)cc32)C1 [CDD-2235, 1-((1r,3r)-3-(methylcarbamoyl)cyclobutyl)-N-(3-(4-phenylpiperazin-1-yl)propyl)-2-(3,4,5-trimethoxyphenyl)-1H-benzo[d]imidazole-6-carboxamide]",–,–,Metabolism HLM [2]: 9.7 min; Metabolism MLM [3]: 5.7 min
"1-cyclopropyl-N-(3-(4-(2,3-dimethylphenyl)piperazin-1-yl)propyl)-2-(3,4,5-trimethoxyphenyl)-1H-benzo[d]imidazole-6-carboxamide [CDD-2468]",135 nM,4050 nM,–

# Further lines, with some results ahead:
IC50 [5],IC50 [6],Compound,further results
–,> 1000 nM,"CN(C)CCCNC(=O)c1ccc2nc(-c3cncc4ccccc34)n(C3CCC3)c2c1 [CDD-2623, 1-cyclobutyl-N-(3-(dimethylamino)propyl)-2-(isoquinolin-4-yl)-1H-benzo[d]imidazole-6-carboxamide]",–
–,> 1000 nM,"CN(C)CCCNC(=O)c1ccc2nc(-c3cccc(-c4ccccc4)c3)n(C3CCC3)c2c1 [CDD-2621, 2-([1,1′-biphenyl]-3-yl)-1-cyclobutyl-N-(3-(dimethylamino)propyl)-1H-benzo[d]imidazole-6-carboxamide]",–
–,> 1000 nM,"COc1ccc(-c2cccc(-c3nc4ccc(C(=O)NCCCN(C)C)cc4n3C3CCC3)n2)cc1 [CDD-2620, 1-cyclobutyl-N-(3-(dimethylamino)propyl)-2-(6-(4-methoxyphenyl)pyridin-2-yl)-1H-benzo[d]imidazole-6-carboxamide]",–
77.4 nM,190 nM,"CNC(=O)[C@H]1C[C@H](n2c(-c3ccc(F)c(OC)c3)nc3ccc(C(=O)NCCCN(C)C)cc32)C1 [CDD-2683, N-(3-(dimethylamino)propyl)-2-(4-fluoro-3-methoxyphenyl)-1-((1r,3r)-3-(methylcarbamoyl)cyclobutyl)-1H-benzo[d]imidazole-6-carboxamide]",–
84 nM,197 nM,"CNC(=O)[C@H]1C[C@H](n2c(-c3cccc(OC)c3)nc3ccc(C(=O)NCCCN(C)C)cc32)C1 [CDD-2684, N-(3-(dimethylamino)propyl)-2-(3-methoxyphenyl)-1-((1r,3r)-3-(methylcarbamoyl)cyclobutyl)-1H-benzo[d]imidazole-6-carboxamide]",–
